The values that follow come from paper PMC3312006 (2011).

Assay [1] concerns the target T1, histone acetyltransferase p300 (KAT3B) (Homo sapiens, UniProt Q09472).
T1 sequence (Q09472 1066-1707): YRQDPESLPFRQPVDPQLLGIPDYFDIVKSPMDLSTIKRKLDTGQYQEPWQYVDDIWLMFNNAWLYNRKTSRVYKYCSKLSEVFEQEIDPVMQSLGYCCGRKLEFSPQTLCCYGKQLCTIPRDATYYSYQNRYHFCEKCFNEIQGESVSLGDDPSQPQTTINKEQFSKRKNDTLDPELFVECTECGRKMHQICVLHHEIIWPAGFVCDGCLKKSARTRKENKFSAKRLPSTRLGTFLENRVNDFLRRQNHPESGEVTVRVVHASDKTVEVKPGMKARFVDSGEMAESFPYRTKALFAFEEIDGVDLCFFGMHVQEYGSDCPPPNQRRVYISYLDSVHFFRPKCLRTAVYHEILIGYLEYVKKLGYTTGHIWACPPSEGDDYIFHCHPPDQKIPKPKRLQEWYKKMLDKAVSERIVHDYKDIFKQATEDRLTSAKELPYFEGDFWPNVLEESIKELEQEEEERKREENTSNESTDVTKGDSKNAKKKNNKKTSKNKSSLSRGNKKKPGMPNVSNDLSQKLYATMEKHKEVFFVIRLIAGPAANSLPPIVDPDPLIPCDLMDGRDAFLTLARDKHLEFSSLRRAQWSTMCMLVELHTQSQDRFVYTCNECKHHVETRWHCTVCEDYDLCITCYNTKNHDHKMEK
Nature of the assay: in vitro filter-binding HAT assay with […]acetyl-CoA and HeLa core histones. Format: biochemical.

The target in assay [2] is T1, histone acetyltransferase p300 (KAT3B). Nature of the assay: biochemical.

The IC50 is the concentration needed to halve the response being measured. For the molecule `CCCCC[C@H](O)/C=C/[C@H]1C(=O)C=C[C@@H]1C/C=C\CCCC(=O)O` [PGJ2], the IC50 in assay [1] was greater than 2000 nM.

In the case of `CCCCC[C@H](O)C/C=C1/C(=O)C=C[C@@H]1C/C=C\CCCC(=O)O` [Δ^12-PGJ2], the IC50 in assay [2] is roughly 750 nM.
